Data as given in paper PMC9316543, “Characterization, Expression Profiling, and Biochemical Analyses of the Cinnamoyl-CoA Reductase Gene Family for Lignin Synthesis in Alfalfa Plants” (International Journal of Molecular Sciences, 2022).
Like-named read-outs stand apart in the source and are kept apart here. Values belong to the molecule of their own block, whether it stands above or below them.

What was measured:
MsCCR1 = system: T1, MsCCR1; test: NADPH oxidation, decrease of A366; assay type: biochemical, Medicago sativa; conditions: NADPH 160 μM, 1x PBS, substrate 30-150 μM
T1 construct: gene CCR1; His-tagged, pET-28a, E. coli BL21, Ni-NTA; tag removal not mentioned
From the text: NADPH oxidation, decrease of A366 on MsCCR1

MsCCR-like1 = system: T2, MsCCR-like1; test: NADPH oxidation, decrease of A366; assay type: biochemical, Medicago sativa; conditions: NADPH 160 μM, 1x PBS, substrate 30-150 μM
T2 construct: His-tagged, pET-28a, E. coli BL21, Ni-NTA; tag removal not mentioned
From the text: NADPH oxidation, decrease of A366 on MsCCR-like1

[1] = read-out: p-Coumaroyl-CoA / K m

Km (MsCCR1; read-out: Sinapoyl-CoA / K m): 10.6 ± 1.25 µM
Compound: COc1cc(/C=C/C(=O)SCCNC(=O)CCNC(=O)[C@H](O)C(C)(C)COP(=O)(O)OP(=O)(O)OC[C@H]2O[C@@H](n3cnc4c(N)ncnc43)[C@H](O)[C@@H]2OP(=O)(O)O)cc(OC)c1O [Sinapoyl-CoA]

Km (MsCCR1; read-out: Feruloyl-CoA / K m): 45.2 ± 11.4 µM
Compound: COc1cc(/C=C/C(=O)SCCNC(=O)CCNC(=O)[C@H](O)C(C)(C)COP(=O)(O)OP(=O)(O)OC[C@H]2O[C@@H](n3cnc4c(N)ncnc43)[C@H](O)[C@@H]2OP(=O)(O)O)ccc1O [Feruloyl-CoA]

Km (MsCCR-like1; read-out: Caffeoyl-CoA / K m): 48.2 ± 1.75 µM
Compound: CC(C)(COP(=O)(O)OP(=O)(O)OC[C@H]1O[C@@H](n2cnc3c(N)ncnc32)[C@H](O)[C@@H]1OP(=O)(O)O)[C@@H](O)C(=O)NCCC(=O)NCCSC(=O)/C=C/c1ccc(O)c(O)c1 [Caffeoyl-CoA]

Km (MsCCR-like1; [1]): 44.1 ± 7.12 µM
Km (MsCCR1; [1]): 24.2 ± 4.51 µM
Compound: CC(C)(COP(=O)(O)OP(=O)(O)OC[C@H]1O[C@@H](n2cnc3c(N)ncnc32)[C@H](O)[C@@H]1OP(=O)(O)O)[C@@H](O)C(=O)NCCC(=O)NCCSC(=O)/C=C/c1ccc(O)cc1 [p-Coumaroyl-CoA]
